Experimental data taken from ChEMBL document CHEMBL3137667, “[Drug-induced liver injury; fourteenth updated edition of the bibliographic database of liver injuries and related drugs]” (Gastroenterol Clin Biol, 2004).

Legend:
[1] = Highest frequency of moderate liver toxicity observed during clinical trials, expressed as a percentage. [column '% BIOL' in source]; conditions: human
[2] = Highest frequency of acute liver toxicity observed during clinical trials, expressed as a percentage. [column '% AIGUE' in source]; conditions: human
[3] = Times to onset, minimal and maximal, observed in the indexed observations. [column 'DELAI' in source]; conditions: human
[4] = human, serum
[5] = human, serum; remark: listed apart in the source
[6] = human
[7] = human; remark: listed apart in the source
[8] = human; remark: listed apart in the source
[9] = human, serum, 4383 h
[10] = human; remark: listed apart in the source
[11] = human; remark: listed apart in the source
[12] = human; remark: listed apart in the source
[13] = human; remark: listed apart in the source
[14] = human; remark: listed apart in the source
[15] = human; remark: listed apart in the source
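For Hepatotoxicity (association with vascular disease) in this document: count of indexed literature references reporting vascular liver injury in humans, e.g. peliosis hepatitis, hepatic veno-occlusive disease or Budd-Chiari syndrome.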
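For Hepatotoxicity (benign tumour) in this document: value is a count of indexed literature references citing a benign tumour confirmed by histopathology.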
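For Hepatotoxicity (choleostasis) in this document: human cholestatic liver injury, shown by histopathology or by peak ALT or AST elevation over alkaline phosphatase ratio below 2, value counts indexed literature reports.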
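For Hepatotoxicity (chronic liver disease) in this document: chronic liver injury confirmed by histopathology or persistently raised serum aminotransferase activity beyond 6 months, value given as the count of indexed literature references.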
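For Hepatotoxicity (cirrhosis) in this document: value is a count of indexed literature references reporting cirrhosis confirmed by histopathology.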
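For Hepatotoxicity (cytolytic) in this document: human cytolytic liver injury, shown by histopathology or by a ratio above 5 of peak ALT or AST elevation to alkaline phosphatase elevation, value counts indexed references.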
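For Hepatotoxicity (granulomatous hepatitis) in this document: value is a count of indexed literature references reporting granulomatous liver disease confirmed by histopathology.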
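For Hepatotoxicity (malignant tumour) in this document: malignant tumour confirmed by histopathology, value gives the count of indexed literature references reporting it.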
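For Hepatotoxicity (severe hepatitis) in this document: human clinical data: severe hepatitis, meaning potentially life-threatening liver failure or clinically observed cases, the value counts how many indexed literature references report it.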
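For Hepatotoxicity (steatosis) in this document: steatosis confirmed by histopathology, value is the count of indexed references.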

## C=CCNc1nc(NCC=C)nc(N2CCN(C(c3ccc(F)cc3)c3ccc(F)cc3)CC2)n1 [ALMITRINE]
[1]
  Hepatotoxicity (moderate): 0%
[2]
  Hepatotoxicity (acute): 0%
[3]
  Hepatotoxicity (time to onset): 1 week
[4]
  Hepatotoxicity (moderate): 0
[5]
  Hepatotoxicity (acute): 1
[6]
  Hepatotoxicity (cytolytic): 1
[7]
  Hepatotoxicity (choleostasis): 0
[8]
  Hepatotoxicity (severe hepatitis): 0
[9]
  Hepatotoxicity (chronic liver disease): 0
[10]
  Hepatotoxicity (cirrhosis): 0
[11]
  Hepatotoxicity (granulomatous hepatitis): 0
[12]
  Hepatotoxicity (association with vascular disease): 0
[13]
  Hepatotoxicity (steatosis): 0
[14]
  Hepatotoxicity (malignant tumour): 0
[15]
  Hepatotoxicity (benign tumour): 0

## NS(=O)(=O)c1cc2c(cc1Cl)NC(C(Cl)Cl)NS2(=O)=O (stereo not given) [TRICHLORMETHIAZIDE]
[1]
  Hepatotoxicity (moderate): 0%
[2]
  Hepatotoxicity (acute): 0%
[3]
  Hepatotoxicity (time to onset): 1 week
[4]
  Hepatotoxicity (moderate): 1
[5]
  Hepatotoxicity (acute): 0
[6]
  Hepatotoxicity (cytolytic): 0
[7]
  Hepatotoxicity (choleostasis): 0
[8]
  Hepatotoxicity (severe hepatitis): 0
[9]
  Hepatotoxicity (chronic liver disease): 0
[10]
  Hepatotoxicity (cirrhosis): 0
[11]
  Hepatotoxicity (granulomatous hepatitis): 1
[12]
  Hepatotoxicity (association with vascular disease): 0
[13]
  Hepatotoxicity (steatosis): 0
[14]
  Hepatotoxicity (malignant tumour): 0
[15]
  Hepatotoxicity (benign tumour): 0

## CN(C)CC(Oc1ccccc1)Oc1ccccc1 [MEDIFOXAMINE]
[1]
  Hepatotoxicity (moderate): 0%
[2]
  Hepatotoxicity (acute): 0%
[3]
  Hepatotoxicity (time to onset): 6 days
[4]
  Hepatotoxicity (moderate): 0
[5]
  Hepatotoxicity (acute): 1
[6]
  Hepatotoxicity (cytolytic): 1
[7]
  Hepatotoxicity (choleostasis): 0
[8]
  Hepatotoxicity (severe hepatitis): 2
[9]
  Hepatotoxicity (chronic liver disease): 0
[10]
  Hepatotoxicity (cirrhosis): 0
[11]
  Hepatotoxicity (granulomatous hepatitis): 0
[12]
  Hepatotoxicity (association with vascular disease): 0
[13]
  Hepatotoxicity (steatosis): 0
[14]
  Hepatotoxicity (malignant tumour): 0
[15]
  Hepatotoxicity (benign tumour): 0

## C[C@H]1[C@H](OC(=O)CCC(=O)O)O[C@@H]2O[C@@]3(C)CC[C@H]4[C@H](C)CC[C@@H]1[C@@]24OO3 [ARTESUNATE]
[1]
  Hepatotoxicity (moderate): 0%
[2]
  Hepatotoxicity (acute): 6.7%
[3]
  Hepatotoxicity (time to onset): 48 days
[4]
  Hepatotoxicity (moderate): 0
[5]
  Hepatotoxicity (acute): 1
[6]
  Hepatotoxicity (cytolytic): 1
[7]
  Hepatotoxicity (choleostasis): 0
[8]
  Hepatotoxicity (severe hepatitis): 0
[9]
  Hepatotoxicity (chronic liver disease): 0
[10]
  Hepatotoxicity (cirrhosis): 0
[11]
  Hepatotoxicity (granulomatous hepatitis): 0
[12]
  Hepatotoxicity (association with vascular disease): 0
[13]
  Hepatotoxicity (steatosis): 0
[14]
  Hepatotoxicity (malignant tumour): 0
[15]
  Hepatotoxicity (benign tumour): 0

## Nc1ccn([C@H]2CC[C@@H](CO)O2)c(=O)n1 [ZALCITABINE]
[1]; Liver
  Hepatotoxicity (moderate): 14.9%
[2]; Liver
  Hepatotoxicity (acute): 8.5%
[3]
  Hepatotoxicity (time to onset): 3 weeks - 10 months
[4]
  Hepatotoxicity (moderate): 5
[5]
  Hepatotoxicity (acute): 4
[6]; Liver
  Hepatotoxicity (cytolytic): 3
[7]; Liver
  Hepatotoxicity (choleostasis): 0
[8]; Liver
  Hepatotoxicity (severe hepatitis): 0
[9]
  Hepatotoxicity (chronic liver disease): 0
[10]
  Hepatotoxicity (cirrhosis): 0
[11]; Liver
  Hepatotoxicity (granulomatous hepatitis): 0
[12]
  Hepatotoxicity (association with vascular disease): 0
[13]
  Hepatotoxicity (steatosis): 2
[14]
  Hepatotoxicity (malignant tumour): 0
[15]
  Hepatotoxicity (benign tumour): 0

## [H]/N=C(\N/C(=N/[H])Nc1ccc(Cl)cc1)NC(C)C [PROGUANIL]
[1]
  Hepatotoxicity (moderate): 16%
[2]
  Hepatotoxicity (acute): 0%
[3]
  Hepatotoxicity (time to onset): 6 weeks
[4]
  Hepatotoxicity (moderate): 1
[5]
  Hepatotoxicity (acute): 1
[6]
  Hepatotoxicity (cytolytic): 1
[7]
  Hepatotoxicity (choleostasis): 0
[8]
  Hepatotoxicity (severe hepatitis): 0
[9]
  Hepatotoxicity (chronic liver disease): 0
[10]
  Hepatotoxicity (cirrhosis): 0
[11]
  Hepatotoxicity (granulomatous hepatitis): 0
[12]
  Hepatotoxicity (association with vascular disease): 0
[13]
  Hepatotoxicity (steatosis): 0
[14]
  Hepatotoxicity (malignant tumour): 0
[15]
  Hepatotoxicity (benign tumour): 0

## IVERMECTIN
[1]
  Hepatotoxicity (moderate): 23.3%
[2]
  Hepatotoxicity (acute): 0%
[3]
  Hepatotoxicity (time to onset): 2 days - 1 week
[4]
  Hepatotoxicity (moderate): 5
[5]
  Hepatotoxicity (acute): 0
[6]
  Hepatotoxicity (cytolytic): 0
[7]
  Hepatotoxicity (choleostasis): 0
[8]
  Hepatotoxicity (severe hepatitis): 0
[9]
  Hepatotoxicity (chronic liver disease): 0
[10]
  Hepatotoxicity (cirrhosis): 0
[11]
  Hepatotoxicity (granulomatous hepatitis): 0
[12]
  Hepatotoxicity (association with vascular disease): 0
[13]
  Hepatotoxicity (steatosis): 0
[14]
  Hepatotoxicity (malignant tumour): 0
[15]
  Hepatotoxicity (benign tumour): 0

## CCOC(=O)[C@H](CCc1ccccc1)N[C@@H](C)C(=O)N1[C@H](C(=O)O)C[C@H]2CCCC[C@@H]21 [TRANDOLAPRIL]
[1]
  Hepatotoxicity (moderate): 1.1%
[2]
  Hepatotoxicity (acute): 0%
[3]
  Hepatotoxicity (time to onset): 2 weeks
[4]
  Hepatotoxicity (moderate): 2
[5]
  Hepatotoxicity (acute): 1
[6]
  Hepatotoxicity (cytolytic): 0
[7]
  Hepatotoxicity (choleostasis): 1
[8]
  Hepatotoxicity (severe hepatitis): 0
[9]
  Hepatotoxicity (chronic liver disease): 0
[10]
  Hepatotoxicity (cirrhosis): 0
[11]
  Hepatotoxicity (granulomatous hepatitis): 0
[12]
  Hepatotoxicity (association with vascular disease): 0
[13]
  Hepatotoxicity (steatosis): 0
[14]
  Hepatotoxicity (malignant tumour): 0
[15]
  Hepatotoxicity (benign tumour): 0

## COc1cc(N)c(Cl)cc1C(=O)NC1CCN(CCCOc2ccc(F)cc2)CC1OC (stereo not given) [CISAPRIDE]
[1]
  Hepatotoxicity (moderate): 0%
[2]
  Hepatotoxicity (acute): 0%
[3]
  Hepatotoxicity (time to onset): 4 days
[4]
  Hepatotoxicity (moderate): 2
[5]
  Hepatotoxicity (acute): 1
[6]
  Hepatotoxicity (cytolytic): 1
[7]
  Hepatotoxicity (choleostasis): 0
[8]
  Hepatotoxicity (severe hepatitis): 0
[9]
  Hepatotoxicity (chronic liver disease): 0
[10]
  Hepatotoxicity (cirrhosis): 0
[11]
  Hepatotoxicity (granulomatous hepatitis): 0
[12]
  Hepatotoxicity (association with vascular disease): 0
[13]
  Hepatotoxicity (steatosis): 0
[14]
  Hepatotoxicity (malignant tumour): 0
[15]
  Hepatotoxicity (benign tumour): 0

## CC[C@@H](CO)NC(=O)[C@@H]1C=C2c3cccc4[nH]cc(c34)C[C@H]2N(C)C1 [METHYLERGONOVINE]
[1]
  Hepatotoxicity (moderate): 0%
[2]
  Hepatotoxicity (acute): 0%
[3]
  Hepatotoxicity (time to onset): 0.12 days
[4]
  Hepatotoxicity (moderate): 1
[5]
  Hepatotoxicity (acute): 0
[6]
  Hepatotoxicity (cytolytic): 0
[7]
  Hepatotoxicity (choleostasis): 0
[8]
  Hepatotoxicity (severe hepatitis): 0
[9]
  Hepatotoxicity (chronic liver disease): 0
[10]
  Hepatotoxicity (cirrhosis): 0
[11]
  Hepatotoxicity (granulomatous hepatitis): 0
[12]
  Hepatotoxicity (association with vascular disease): 0
[13]
  Hepatotoxicity (steatosis): 0
[14]
  Hepatotoxicity (malignant tumour): 0
[15]
  Hepatotoxicity (benign tumour): 0

## COc1cc2nc(N(C)CCCNC(=O)C3CCCO3)nc(N)c2cc1OC (stereo not given) [ALFUZOSIN]
[1]
  Hepatotoxicity (moderate): 0%
[2]
  Hepatotoxicity (acute): 0%
[3]
  Hepatotoxicity (time to onset): 9 months
[4]
  Hepatotoxicity (moderate): 0
[5]
  Hepatotoxicity (acute): 1
[6]
  Hepatotoxicity (cytolytic): 1
[7]
  Hepatotoxicity (choleostasis): 0
[8]
  Hepatotoxicity (severe hepatitis): 0
[9]
  Hepatotoxicity (chronic liver disease): 0
[10]
  Hepatotoxicity (cirrhosis): 0
[11]
  Hepatotoxicity (granulomatous hepatitis): 0
[12]
  Hepatotoxicity (association with vascular disease): 0
[13]
  Hepatotoxicity (steatosis): 0
[14]
  Hepatotoxicity (malignant tumour): 0
[15]
  Hepatotoxicity (benign tumour): 0
